Patent US9956236B2, “Methods for increasing immune responses using agents that directly bind to and activate IRE-1” (Cornell University, priority 2011, dated 2018)

Experiments:
[1] = tested on: CD86 and CD40; experiment: Co-stimulatory ligand (CD86 and CD40) expression with Nelfinavir and synthetic TLR4 agonist MPLA; format: cell-based; conditions: Nelfinavir plus TLR4 agonist MPLA compared to TLR4 agonist alone
[2] = target: recombinant IRE1 protein (Homo sapiens, UniProt O75460); experiment: In vitro fluorescent splicing reporter assay with recombinant IRE1 protein; format: biochemical; conditions: doses of PIs ranging from 20 uM to 0.63 uM; fluorescence over time
Chain of recombinant IRE1 protein (O75460 19-977, species assumed): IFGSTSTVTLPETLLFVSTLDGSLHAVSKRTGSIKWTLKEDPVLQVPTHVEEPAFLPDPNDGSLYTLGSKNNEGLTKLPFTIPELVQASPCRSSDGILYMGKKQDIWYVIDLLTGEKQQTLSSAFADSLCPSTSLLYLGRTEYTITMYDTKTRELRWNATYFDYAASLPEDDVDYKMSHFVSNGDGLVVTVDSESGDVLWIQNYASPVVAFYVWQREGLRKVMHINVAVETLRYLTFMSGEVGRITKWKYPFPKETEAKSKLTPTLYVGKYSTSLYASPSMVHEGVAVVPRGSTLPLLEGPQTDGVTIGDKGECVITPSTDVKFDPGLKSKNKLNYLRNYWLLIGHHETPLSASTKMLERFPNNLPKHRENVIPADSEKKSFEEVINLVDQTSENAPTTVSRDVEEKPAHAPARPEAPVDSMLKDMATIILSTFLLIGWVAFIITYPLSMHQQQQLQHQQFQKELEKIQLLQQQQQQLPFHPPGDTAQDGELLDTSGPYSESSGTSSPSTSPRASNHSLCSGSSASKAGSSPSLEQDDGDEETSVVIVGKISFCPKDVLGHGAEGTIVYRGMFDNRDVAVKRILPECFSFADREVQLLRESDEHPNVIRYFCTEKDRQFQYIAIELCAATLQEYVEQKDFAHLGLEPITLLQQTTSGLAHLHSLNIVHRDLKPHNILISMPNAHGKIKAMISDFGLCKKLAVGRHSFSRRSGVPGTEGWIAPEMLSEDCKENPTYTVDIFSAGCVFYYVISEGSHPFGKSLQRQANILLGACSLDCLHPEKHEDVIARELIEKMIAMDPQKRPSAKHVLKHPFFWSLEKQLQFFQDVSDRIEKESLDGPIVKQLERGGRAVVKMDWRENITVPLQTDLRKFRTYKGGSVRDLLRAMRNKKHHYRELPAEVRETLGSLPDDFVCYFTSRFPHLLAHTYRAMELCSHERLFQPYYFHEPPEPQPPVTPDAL

[3] = tested on: IL-6; experiment: IL-6 production with Nelfinavir and synthetic TLR4 agonist MPLA; format: cell-based; conditions: Nelfinavir plus TLR4 agonist MPLA compared to TLR4 agonist alone
Excerpt: FIG. 1. HIV-protease inhibitors (PIs) trigger robust IRE1 and XBP1 activation and synergize with TLR4 activation to produce cytokines and co-stimulatory molecules. A) XBP1 mRNA maturation (XBP1s) in J774 cells stimulated with dose dependent concentrations of HIV-PIs (similar data were obtained in primary mouse M0s, and various M0 cell lines of human and mouse origin). B) Cell extracts of cells stimulated with Tunicamycin (TM) or HIV-protease inhibitors were monitored for IRE1 activation by phosphorylation in a Phos-tag SDS-PAGE gel, CHOP induction and ATF6a processing. C) Realtime PCR of CHOP induction by the ER-stress inducer TM and the HIV-PI Nelfinavir (NFR) was analyzed in PERK proficient and deficient MEFs. […]
XBP1 mRNA maturation (XBP1s) in J774 cells stimulated with dose dependent concentrations of HIV-PIs (similar data were obtained in primary mouse M0s, and various M0 cell lines of human and mouse origin) see FIG. 1, panel A. Cell extracts of cells stimulated with Tunicamycin (TM) or HIV-protease inhibitors were monitored for IRE1 activation by phosphorylation in a Phos-tag SDS-PAGE gel, CHOP induction and ATF6a processing, see FIG. 1, panel B. Realtime PCR of CHOP induction by the ER-stress inducer TM and the HIV-PI Nelfinavir (NFR) was analyzed in PERK proficient and deficient MEFs see FIG. 1, panel C.

Row | induction of xbp1 splicing [2] | Compound | CD40 expression [1] | CD86 expression [1] | IL-6 production [3]
1 | marked induction | Cc1c(O)cccc1C(=O)N[C@@H](CSc1ccccc1)[C@H](O)CN1C[C@H]2CCCC[C@H]2C[C@H]1C(=O)NC(C)(C)C [Nelfinavir] | Increased | Increased | Increased
2 | marked induction | CC(C)c1nc(CN(C)C(=O)N[C@H](C(=O)N[C@@H](Cc2ccccc2)C[C@H](O)[C@H](Cc2ccccc2)NC(=O)OCc2cncs2)C(C)C)cs1 [ritonivir, ritonavir] |  |  | 
3 | not | CC(C)CN(C[C@@H](O)[C@H](Cc1ccccc1)NC(=O)O[C@H]1CCOC1)S(=O)(=O)c1ccc(N)cc1 [amprenivir, amprenavir] |  |  | 
